Patent US7276492B2, “Use of ACE inhibitors for treatment of patients suffering from behavioral disorders” (priority 2000, dated 2007)

Experiments:
[1] = test system: central nervous system; conditions: of the persons treated; cited from earlier work
[2] = test system: temper, rage and outburst behavior disorder (TROBD); test: Example 1: lisinopril regimen in a patient suffering from TROBD; type: in vivo, human; conditions: for relief of TROBD by prior treatments: prior treatments of the same patient, before lisinopril
Description: The TROBD was an endogenous behavioral disorder. […] When confined to their room, the patient would act out with banging and stomping. Episodes were accompanied by physiological changes including dilation of pupils, expressionless face and a rise in blood pressure.
With lisinopril medication as noted above over a period of about four weeks, definite changes in behavior were evident. […] At home, they retreated from a situation triggering the event to their room, where they remained quiet.
Each of the three episodes occurred at school. In one episode, the patient was working on a computer and refused to give up their work station when their allotted time had been used up. […] A second episode was triggered when the patient was asked to make up a class they had missed. They refused to go to the class but voluntarily moved themself to a “cooling room” to allow their temper to subside. They again, when so instructed, walked to the school office without being physically coerced. In a third episode, the patient was asked to leave the classroom because they would not stop talking during a quiet time. In this case, there was a limited degree of acting out in that, while sitting in a chair, they kicked a desk which was knocked over. They then allowed themself to be escorted by police officers to the school office without being physically coerced. In the office, they kicked another desk and was taken by ambulance to a children's hospital for evaluation.

[3] = under treatment, approximately two and one-half months

CCOC(=O)[C@H](CCc1ccccc1)N[C@@H](C)C(=O)N1Cc2cc(OC)c(OC)cc2C[C@H]1C(=O)O [moexipril]
incidence of mood change [1]: less than one

NCCCC[C@H](N[C@@H](CCc1ccccc1)C(=O)O)C(=O)N1CCC[C@H]1C(=O)O [lisinopril]
violent outburst during episodes ([2]; lisinopril 10 mg per day oral, about four weeks): without violent outburst
duration of episodes of rage and/or violent behavior ([2]; lisinopril 10 mg per day oral, about four weeks, prior to medication approximately twenty minutes per episode): five to ten
frequency of episodes ([2]; lisinopril 10 mg per day oral, about four weeks, prior to medication two to four episodes per week): approximately one
blood pressure during the three most marked temper-related episodes [2, 3]: 128/64
degree of violence in episodes compared to behavior prior to treatment [2, 3]: significantly reduced
dilation of pupils [2, 3]: no noticeable dilation of pupils

CCC(=O)O[C@@H](O[P@](=O)(CCCCc1ccccc1)CC(=O)N1C[C@H](C2CCCCC2)C[C@H]1C(=O)O)C(C)C [fosinopril]
incidence of behavior change [1]: less than one
incidence of memory disturbance [1]: less than one
incidence of mood change [1]: less than one

CCOC(=O)[C@H](CCc1ccccc1)N[C@@H](C)C(=O)N1CCC[C@H]1C(=O)O [enalapril]
incidence of dream abnormality [1]: less than one

C[C@H](N)Cc1ccccc1 [dextroamphetamine]
relief of TROBD by prior treatments [2]: ineffective to provide adequate relief

COC(=O)C(c1ccccc1)C1CCCCN1 (stereo not shown) [methylphenidate]
relief of TROBD by prior treatments [2]: ineffective to provide adequate relief
